The record followed here is ChEMBL document CHEMBL5518178 (Eur J Med Chem, 2024).

As a reminder, the IC50 is the concentration that inhibits the measured activity by half.

Active and inactive are the calls of the source. The rule behind the calls is not given here.

The subject of series [1] is MGC-803. Briefly: Induction of apoptosis in human MGC-803 cells assessed as late apoptotic cells at 40 nmol/L incubated for 48 hrs by Annexin V-FITC/propidium iodide staining based flow cytometer analysis (reference value: 2.22 %). The class given is functional. Background: A flow cytometer gives signals particle by particle.
The test system of series [2] is MGC-803. Briefly: Induction of apoptosis in human MGC-803 cells assessed as viable cells at 40 nmol/L incubated for 48 hrs by Annexin V-FITC/propidium iodide staining based flow cytometer analysis (reference value: 93.08 %). The series is classed as functional. The settings on record: read-out: Activity.
Series [3] relates to MGC-803. Briefly: Induction of apoptosis in human MGC-803 cells assessed as early apoptotic cells at 20 nmol/L incubated for 48 hrs by Annexin V-FITC/propidium iodide staining based flow cytometer analysis (reference value: 4.38 %). The class given is functional.
The subject of series [4] is MGC-803. Briefly: Inhibition of colony formation in human MGC-803 cells incubated for 7 days by crystal violet staining based analysis. The series is classed as functional, cell-based. The settings on record: dose 24-40 nmol/L, time 7.0 day.
The test system of series [5] is MGC-803. Briefly: Induction of apoptosis in human MGC-803 cells assessed as necrotic cells at 10 nmol/L incubated for 48 hrs by Annexin V-FITC/propidium iodide staining based flow cytometer analysis (reference value: 0.32 %). The series is classed as functional.
Series [6] deals with MGC-803. Nature of the series: Induction of apoptosis in human MGC-803 cells assessed as caspase-7 cleavage at 10 to 40 nmol/L incubated for 48 hrs by Western blotting. The settings on record: dose 10-40 nmol/L. The class given is functional, cell-based. A general note: In western blotting, separated proteins are transferred to a membrane and probed.
For series [7], the system named is MGC-803. Nature of the series: Induction of cell cycle arrest in human MGC-803 cells at M phase assessed as increase in p-Histone H3 level at 10 to 40 nmol/L incubated for 48 hrs by Western blotting. The series is classed as functional, cell-based. The settings on record: dose 10-40 nmol/L.
Series [8] concerns MGC-803. Briefly: Antiproliferative activity against human MGC-803 cells assessed as reduction in cell viability incubated for 12 to 48 hrs by MTT assay. The class given is functional, cell-based. The settings on record: dose 20-80 µM, time 12-48 hrs. Background: Tetrazolium dyes change colour on reduction, which living cells bring about.
In series [9] the target is Tubulin beta (Homo sapiens) (UniProt P68371+Q9H4B7+Q13509+P04350+Q3ZCM7+P07437+Q13885+Q9BVA1+Q9BUF5+A6NNZ2). Briefly: Binding affinity to beta-tubulin (unknown origin) colchicine binding site assessed as reduction in beta-tubulin-EBI adduct at 10 to 30 uM incubated for 2 hrs in presence of EBI by Western blotting. The series is classed as protein assay. The following applies: dose 10-30 µM.

For a further series, the system named is HCT-116. Nature of the series: Antiproliferative activity against human HCT-116 cells assessed as inhibition of cell growth incubated for 48 hrs by MTT assay. The settings on record: HCT-116, 48 h. The series is classed as functional, cell-based.
For series [10], the system named is MGC-803. Briefly: Antiproliferative activity against human MGC-803 cells assessed as reduction in cell viability at 20 to 80 nmol/L by MTT assay. The class given is functional, cell-based. The following applies: dose 20-80 nmol/L, time 12-48 hrs, TDE = time-dependent effect.
The test system of series [11] is MGC-803. Nature of the series: Induction of cell cycle arrest in human MGC-803 cells assessed as increase in G2/M phase cells at 10 to 40 nmol/L incubated for 24 hrs by RNAse/propidium iodide staining based flow cytometry analysis relative to control. The series is classed as functional. The following applies: dose 10-40 nmol/L, at 10 to 40 nM.
For series [12], the system named is MGC-803. Briefly: Anti-migratory activity against human MGC-803 cells assessed as decrease in MMP-9 level at 10 to 40 nmol/L by Western blotting. The class given is functional, cell-based. The settings on record: dose 10-40 nmol/L.
For series [13], the system named is MGC-803. Nature of the series: Antitumor activity against human MGC-803 cells xenografted in BALB/c-nude mouse assessed as tumor growth rate at 30 mg/kg/day, ip administered for 18 days relative to control. The series is classed as functional. The following applies: time 18 day.
The nature of series [14]: Toxicity in BALB/c-nude mouse xenografted with human MGC-803 cells assessed as change in body weight at 30 mg/kg/day, ip administered for 18 days. The class given is organism-based. The following applies: in vivo, 432 h, time 18 day.
For a further series, the target named is Tubulin (Homo sapiens) (UniProt P68371+Q9H4B7+P0DPH7+P68366+Q13509+Q71U36+P04350+Q3ZCM7+P07437+P68363+Q9BQE3+Q6PEY2+Q13885+Q9BVA1+Q9BUF5). Nature of the series: Inhibition of tubulin polymerization (unknown origin) at 3 uM by fluorescence plate reader analysis. The class given is protein-complex assay.
A short description of series [15]: Toxicity in BALB/c-nude mouse xenografted with human MGC-803 cells assessed as alteration in lung tissue at 30 mg/kg/day, ip administered for 18 days by hematoxylin and eosin staining based analysis. The series is classed as organism-based. The settings on record: in vivo, 432 h, time 18 day.

Take `COc1ccc2c(c1)CCCN2c1cc(=O)oc2ccccc12`: the Activity in the series with MGC-803 [1] was 17.65%; with MGC-803 [3], 9.14%; in the series on MGC-803 [5] it was 0.34%; in the series on MGC-803 [8], “Dose-Dependent Effect”; in the series on MGC-803 [10], “Tde”; in the series with MGC-803 [11] it was 18%. Further, the Activity was 25% with MGC-803 [13], “Non-Toxic” in series [14] and “Non-Toxic” in series [15]. In the series on MGC-803 [2], the viability at 0.04 µM stood at 39.1%. Also, in the series with MGC-803 [4], the inhibition entry is “Dose-Dependent Effect”. The outcome (with MGC-803 [6]; in the series with MGC-803 [7]; in series [9]; in the series on MGC-803 [12]) was Active. Further, the half-inhibitory concentration (IC50) in the series on HCT-116 was determined as 81 nM. Further, the inhibition entry on Tubulin (Homo sapiens) was “Active”.
